Earlier results on 1 compound are cited in patent US20160376245A1, “IMPURITY OF FAMOTIDINE” (GAVIS PHARMACEUTICALS, priority 2015, published 2016).

Read-outs that look alike come from different tables or passages of the source.

On to `NC(N)=Nc1nc(CSCCC(N)=NS(N)(=O)=O)cs1` [Famotidine, N-(aminosulfonyl)-3-[[[2-[(diaminomethylene)amino]-4-thiazolyl]methyl]thio] propanimidamide], for which the solubility result reads like this: (in ethanol) “practically insoluble”; (in glacial acetic acid) “freely soluble”; (in methanol) “slightly soluble”; (in water) “very slightly soluble”.
